Experiment [1] addresses human E3 ligase component cereblon (CRBN) (Homo sapiens (Human), UniProt Q96SW2). Kind of experiment: Cereblon (CRBN) target engagement, NanoBRET TE Intracellular E3 Ligase Assay in transfected HEK-293T cells. The following applies: read-out: CRBN Binding EC50. An outline of the steps:
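Live HEK-293T cells co-transfected overnight with NanoLuc-CRBN (CRBN at NanoLuc C-terminus) and DDB1 vectors (10:990 ng) were given CRBN tracer and an 11-point compound series for 2 h at 37° C. BRET read at 450/610 nm with extracellular NanoLuc inhibitor present; IC50 from four-parameter logistic fit.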
For orientation: In BRET a luciferase serves as donor, and the signal depends on an acceptor being close.

The next experiment concerns IKZF2 (Helios). Nature of the experiment: IKZF2 reporter degradation assay (HEK 293T IKZF2-mNeonGreen reporter cell line). It counts as cell-based, human. The following applies: 1 μM compound, 24 hour incubation, HEK 293T IKZF2-mNeonGreen reporter. In outline: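 HEK 293T lines stably expressing each IKZF-GGGGS×3-mNeonGreen-P2A-mScarlet reporter, 4000 cells/well in FluoroBrite medium, treated with compound (≤0.5% DMSO) for 24 h at 37 °C. Imaging measured percent mNeonGreen-positive cells, with mScarlet used for segmentation; DC50 from four-parameter logistic fit.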

A word on the EC50: it is the concentration needed to bring the measured effect to its halfway point.

Some results are limits rather than exact numbers.

human E3 ligase component cereblon (CRBN), sequence (Q96SW2 whole entry): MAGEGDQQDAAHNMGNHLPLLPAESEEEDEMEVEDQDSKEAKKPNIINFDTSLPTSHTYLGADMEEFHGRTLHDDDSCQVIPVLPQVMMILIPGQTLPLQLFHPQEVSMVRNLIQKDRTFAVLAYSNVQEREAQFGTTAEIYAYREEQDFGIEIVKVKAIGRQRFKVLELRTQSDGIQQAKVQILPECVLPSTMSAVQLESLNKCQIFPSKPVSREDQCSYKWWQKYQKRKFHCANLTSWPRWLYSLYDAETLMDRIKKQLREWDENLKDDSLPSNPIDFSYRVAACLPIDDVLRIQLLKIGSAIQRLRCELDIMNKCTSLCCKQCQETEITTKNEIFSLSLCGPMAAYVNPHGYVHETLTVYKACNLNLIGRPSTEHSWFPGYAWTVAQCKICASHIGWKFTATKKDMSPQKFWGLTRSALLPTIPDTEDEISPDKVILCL
human E3 ligase component cereblon (CRBN), sequence (Q16531 whole entry partner): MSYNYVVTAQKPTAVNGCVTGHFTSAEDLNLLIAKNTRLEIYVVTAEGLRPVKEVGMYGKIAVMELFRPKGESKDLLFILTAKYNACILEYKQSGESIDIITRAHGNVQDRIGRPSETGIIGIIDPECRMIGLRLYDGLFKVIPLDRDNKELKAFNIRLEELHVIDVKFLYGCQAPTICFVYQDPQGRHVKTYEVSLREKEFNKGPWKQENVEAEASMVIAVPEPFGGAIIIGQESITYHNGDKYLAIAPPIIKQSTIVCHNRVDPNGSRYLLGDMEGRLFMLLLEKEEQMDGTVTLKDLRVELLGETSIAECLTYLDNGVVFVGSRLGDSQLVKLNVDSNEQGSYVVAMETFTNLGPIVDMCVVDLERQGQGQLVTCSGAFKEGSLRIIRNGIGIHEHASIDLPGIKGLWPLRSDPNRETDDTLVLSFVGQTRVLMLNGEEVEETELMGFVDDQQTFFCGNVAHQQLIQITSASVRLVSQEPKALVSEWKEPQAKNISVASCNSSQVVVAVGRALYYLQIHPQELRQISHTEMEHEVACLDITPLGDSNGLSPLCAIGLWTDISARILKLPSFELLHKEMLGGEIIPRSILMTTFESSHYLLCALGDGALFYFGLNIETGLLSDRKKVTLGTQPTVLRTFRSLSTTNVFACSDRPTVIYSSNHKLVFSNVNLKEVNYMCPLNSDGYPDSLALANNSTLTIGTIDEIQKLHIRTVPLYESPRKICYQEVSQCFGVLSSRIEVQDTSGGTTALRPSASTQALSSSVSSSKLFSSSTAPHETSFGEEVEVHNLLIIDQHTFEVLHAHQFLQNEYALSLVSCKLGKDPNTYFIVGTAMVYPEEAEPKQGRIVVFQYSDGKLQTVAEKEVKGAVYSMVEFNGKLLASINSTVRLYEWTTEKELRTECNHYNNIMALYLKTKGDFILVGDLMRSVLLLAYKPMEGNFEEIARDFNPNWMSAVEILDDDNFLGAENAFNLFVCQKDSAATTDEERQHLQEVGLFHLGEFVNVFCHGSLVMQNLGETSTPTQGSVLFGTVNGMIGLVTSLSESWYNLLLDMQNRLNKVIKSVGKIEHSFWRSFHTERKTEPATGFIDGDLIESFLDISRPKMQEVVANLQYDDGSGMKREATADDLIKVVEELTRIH

With `O=C1CCC(N2Cc3cc(O[C@H]4CCCC[C@@H]4N4CC(c5cccc(C(F)(F)F)c5)C4)ccc3C2=O)C(=O)N1` (mixture of isomers) [Compound 62, Rac-3-(1-oxo-5-(((trans)-2-(3-(3-(trifluoromethyl)phenyl)azetidin-1-yl)cyclohexyl)oxy)isoindolin-2-yl)piperidine-2,6-dione], in experiment [1], the EC50 was 0.046 µM. The “IKZF2 % Degradation @ 1 μM” value in the experiment with IKZF2 (Helios) is 87.5%.

Take `O=C1CCC(N2Cc3cc(O[C@H]4CCCC[C@@H]4N4CC(c5ccc(F)cc5F)C4)ccc3C2=O)C(=O)N1` (stereo partly drawn) [Compound 57, 3-(5-(((1S,2S)-2-(3-(2,4-difluorophenyl)azetidin-1-yl)cyclohexyl)oxy)-1-oxoisoindolin-2-yl)piperidine-2,6-dione]: in experiment [1], the EC50 is 0.006 µM. Moreover, the “IKZF2 % Degradation @ 1 μM” value in the experiment on IKZF2 (Helios) turned out to be 85.8%.

On to `O=C1CCC(N2Cc3c(ccc(O[C@H]4CCCC[C@@H]4N4CC(c5ccccc5)C4)c3Cl)C2=O)C(=O)N1` (single isomer, unassigned) [Compound 41], for which the EC50 in experiment [1] stood at 0.061 µM. Besides, in the experiment with IKZF2 (Helios), the “IKZF2 % Degradation @ 1 μM” value is recorded as <15%.

Regarding `N#Cc1ccc(C2CN([C@H]3CCCC[C@H]3Oc3ccc4c(c3)CN(C3CCC(=O)NC3=O)C4=O)C2)c(Cl)c1` (stereo partly drawn) [Compound 49, 3-chloro-4-(1-((1S,2R)-2-((2-(2,6-dioxopiperidin-3-yl)-1-oxoisoindolin-5-yl)oxy)cyclohexyl)azetidin-3-yl)benzonitrile], the 50% effective concentration (EC50) in experiment [1] was 0.011 µM. Also, the “IKZF2 % Degradation @ 1 μM” value in the experiment with IKZF2 (Helios) is reported as <15%.

With `O=C1CCC(N2Cc3cc(O[C@H]4CCCC[C@@H]4N4CC(c5ccc(F)cc5)C4)ccc3C2=O)C(=O)N1` (single isomer, unassigned) [Compound 51], the concentration giving a half-maximal response (EC50) in experiment [1] was found to be 0.018 µM. Also, in the experiment with IKZF2 (Helios), the “IKZF2 % Degradation @ 1 μM” value amounted to 74.2%.

In the case of `N#Cc1ccc(C2CN([C@@H]3CCCC[C@@H]3Oc3ccc4c(c3)CN(C3CCC(=O)NC3=O)C4=O)C2)c(F)c1` (mixture of isomers) [Compound 115, Rac-4-(1-((cis)-2-((2-(2,6-dioxopiperidin-3-yl)-1-oxoisoindolin-5-yl)oxy)cyclohexyl)azetidin-3-yl)-3-fluorobenzonitrile], the EC50 in experiment [1] was 0.012 µM. Further, the “IKZF2 % Degradation @ 1 μM” value with IKZF2 (Helios) is 63.6%.

Consider `N#Cc1cc(F)ccc1C1CN([C@H]2CCCC[C@@H]2Oc2ccc3c(c2)CN(C2CCC(=O)NC2=O)C3=O)C1` (single isomer, unassigned) [Compound 45], for which the concentration giving a half-maximal response (EC50) in experiment [1] amounted to 0.022 µM. Further, the “IKZF2 % Degradation @ 1 μM” value in the experiment with IKZF2 (Helios) was 88%.

Take `N#Cc1ccccc1C1CN([C@H]2CCCC[C@@H]2Oc2ccc3c(c2)CN(C2CCC(=O)NC2=O)C3=O)C1` (mixture of isomers) [Compound 108, Rac-2-(1-((trans)-2-((2-(2,6-dioxopiperidin-3-yl)-1-oxoisoindolin-5-yl)oxy)cyclohexyl)azetidin-3-yl)benzonitrile]: in experiment [1], the EC50 turned out to be 0.058 µM. In addition, the “IKZF2 % Degradation @ 1 μM” value in the experiment on IKZF2 (Helios) stood at 71.3%.

In the case of `N#Cc1ccc(C2CN(C3CCCCC3Oc3ccc4c(c3)CN(C3CCC(=O)NC3=O)C4=O)C2)cc1` (stereo not shown) [Compound 117, 4-(1-(2-((2-(2,6-dioxopiperidin-3-yl)-1-oxoisoindolin-5-yl)oxy)cyclohexyl)azetidin-3-yl)benzonitrile], the EC50 in experiment [1] turned out to be 0.031 µM. Besides, the “IKZF2 % Degradation @ 1 μM” value in the experiment with IKZF2 (Helios) is <15%.

Take `N#Cc1cc(Cl)ccc1C1CN([C@H]2CCCC[C@@H]2Oc2ccc3c(c2)CN(C2CCC(=O)NC2=O)C3=O)C1` (single isomer, unassigned) [Compound 38]: in experiment [1], the EC50 amounted to 0.052 µM. The “IKZF2 % Degradation @ 1 μM” value with IKZF2 (Helios) was 84.9%.

As to `N#Cc1ccc(C2CN(C3CCCC3Oc3ccc4c(c3)CN(C3CCC(=O)NC3=O)C4=O)C2)cc1` (stereo not shown) [Compound 98, 4-(1-(2-((2-(2,6-dioxopiperidin-3-yl)-1-oxoisoindolin-5-yl)oxy)cyclopentyl)azetidin-3-yl)benzonitrile], the EC50 in experiment [1] turned out to be 0.032 µM. Further, the “IKZF2 % Degradation @ 1 μM” value in the experiment on IKZF2 (Helios) is reported as <15%.

For the compound `N#Cc1ccc(C2CN([C@H]3CCCC[C@@H]3Oc3ccc4c(c3)CN(C3CCC(=O)NC3=O)C4=O)C2)cc1F` (mixture of isomers) [Compound 119, Rac-4-(1-((trans)-2-((2-(2,6-dioxopiperidin-3-yl)-1-oxoisoindolin-5-yl)oxy)cyclohexyl)azetidin-3-yl)-2-fluorobenzonitrile], the EC50 in experiment [1] was found to be 0.008 µM. In addition, the “IKZF2 % Degradation @ 1 μM” value in the experiment on IKZF2 (Helios) turned out to be 63.8%.

As for `O=C1CCC(N2Cc3cc(O[C@H]4CCCC[C@@H]4N4CC(c5ccccc5)C4)c(F)cc3C2=O)C(=O)N1` (single isomer, unassigned) [Compound 53], the concentration for a half-maximal effect (EC50) in experiment [1] came to 0.029 µM. In addition, in the experiment on IKZF2 (Helios), the “IKZF2 % Degradation @ 1 μM” value is reported as 86.9%.

For `N#Cc1cc(F)ccc1C1CN([C@H]2CCCC[C@@H]2Oc2ccc3c(c2)CN(C2CCC(=O)NC2=O)C3=O)C1` (mixture of isomers) [Compound 101, Rac-2-(1-((trans)-2-((2-(2,6-dioxopiperidin-3-yl)-1-oxoisoindolin-5-yl)oxy)cyclohexyl)azetidin-3-yl)-5-fluorobenzonitrile], in experiment [1], the EC50 was 0.033 µM. In the experiment on IKZF2 (Helios), the “IKZF2 % Degradation @ 1 μM” value is 79.2%.

`O=C1CCC(N2Cc3cc(O[C@H]4CCC[C@@H]4N4CCC(c5ccccc5)C4)ccc3C2=O)C(=O)N1` (stereo partly drawn) [Compound 121, 3-(1-oxo-5-(((1S,2S)-2-(3-phenylpyrrolidin-1-yl)cyclopentyl)oxy)isoindolin-2-yl)piperidine-2,6-dione]: in experiment [1], the EC50 stood at 0.006 µM. In the experiment on IKZF2 (Helios), the “IKZF2 % Degradation @ 1 μM” value is on record as 75.9%.

As for `O=C1CCC(N2Cc3cc(OC4CCCCC4N4CC(c5ccccc5)C4)ccc3C2=O)C(=O)N1` (stereo not shown) [Compound 118, 3-(1-oxo-5-((2-(3-phenylazetidin-1-yl)cyclohexyl)oxy)isoindolin-2-yl)piperidine-2,6-dione], in experiment [1], the EC50 amounted to 0.036 µM. In the experiment on IKZF2 (Helios), the “IKZF2 % Degradation @ 1 μM” value is on record as <15%.

In the case of `O=C1CCC(N2Cc3cc(O[C@H]4CCC[C@@H]4N4CCC(c5ccccc5)CC4)ccc3C2=O)C(=O)N1` (stereo partly drawn) [Compound 72, 3-(1-oxo-5-(((1S,2S)-2-(4-phenylpiperidin-1-yl)cyclopentyl)oxy)isoindolin-2-yl)piperidine-2,6-dione], the EC50 in experiment [1] was determined as 0.007 µM. Moreover, in the experiment with IKZF2 (Helios), the “IKZF2 % Degradation @ 1 μM” value was determined as 38.2%.

Regarding `O=C1CCC(N2Cc3cc(O[C@H]4CCC[C@@H]4N4CC(c5ccccc5)C4)ccc3C2=O)C(=O)N1` (stereo partly drawn) [Compound 120, 3-(1-oxo-5-(((1S,2S)-2-(3-phenylazetidin-1-yl)cyclopentyl)oxy)isoindolin-2-yl)piperidine-2,6-dione], in experiment [1], the EC50 came out at 0.011 µM. Besides, in the experiment on IKZF2 (Helios), the “IKZF2 % Degradation @ 1 μM” value was 78.8%.

Turning to `N#Cc1cc(F)ccc1C1CN([C@@H]2CCC[C@H]2Oc2ccc3c(c2)CN(C24CC(C2)C(=O)NC4=O)C3=O)C1` (racemic) [Compound 71, Rac-2-(1-((trans)-2-((2-(2,4-dioxo-3-azabicyclo[3.1.1]heptan-1-yl)-1-oxoisoindolin-5-yl)oxy)cyclopentyl)azetidin-3-yl)-5-fluorobenzonitrile], the concentration giving a half-maximal response (EC50) in experiment [1] was found to be 0.037 µM. In the experiment on IKZF2 (Helios), the “IKZF2 % Degradation @ 1 μM” value is <15%.

In the case of `N#Cc1cc(F)ccc1C1CN([C@H]2CCCC[C@H]2Oc2ccc3c(c2)CN(C2CCC(=O)NC2=O)C3=O)C1` (stereo partly drawn) [Compound 46, 2-(1-((1S,2R)-2-((2-(2,6-dioxopiperidin-3-yl)-1-oxoisoindolin-5-yl)oxy)cyclohexyl)azetidin-3-yl)-5-fluorobenzonitrile], the concentration for a half-maximal effect (EC50) in experiment [1] stood at 0.022 µM. Moreover, the “IKZF2 % Degradation @ 1 μM” value in the experiment on IKZF2 (Helios) is reported as <15%.

Regarding `N#Cc1ccc(C2CN([C@H]3CCCC[C@@H]3Oc3ccc4c(c3)CN(C3CCC(=O)NC3=O)C4=O)C2)c(F)c1` (mixture of isomers) [Compound 116, Rac-4-(1-((trans)-2-((2-(2,6-dioxopiperidin-3-yl)-1-oxoisoindolin-5-yl)oxy)cyclohexyl)azetidin-3-yl)-3-fluorobenzonitrile], in experiment [1], the EC50 was 0.024 µM. Besides, the “IKZF2 % Degradation @ 1 μM” value in the experiment with IKZF2 (Helios) is <15%.

In the case of `N#Cc1ccc(C2CN([C@@H]3CCCC[C@@H]3Oc3ccc4c(c3)CN(C3CCC(=O)NC3=O)C4=O)C2)c(Cl)c1` (mixture of isomers) [Compound 75, Rac-3-chloro-4-(1-((cis)-2-((2-(2,6-dioxopiperidin-3-yl)-1-oxoisoindolin-5-yl)oxy)cyclohexyl)azetidin-3-yl)benzonitrile], the EC50 in experiment [1] stood at 0.012 µM. Further, in the experiment with IKZF2 (Helios), the “IKZF2 % Degradation @ 1 μM” value is recorded as 36.8%.

In the case of `N#Cc1ccccc1C1CN([C@H]2CCCC[C@H]2Oc2ccc3c(c2)CN(C2CCC(=O)NC2=O)C3=O)C1` (mixture of isomers) [Compound 109, Rac-2-(1-((cis)-2-((2-(2,6-dioxopiperidin-3-yl)-1-oxoisoindolin-5-yl)oxy)cyclohexyl)azetidin-3-yl)benzonitrile], the concentration giving a half-maximal response (EC50) in experiment [1] came to 0.037 µM. For the same compound, in the experiment with IKZF2 (Helios), the “IKZF2 % Degradation @ 1 μM” value is reported as <15%.

Take `N#Cc1cccc(C2CN([C@H]3CCCC[C@H]3Oc3ccc4c(c3)CN(C3CCC(=O)NC3=O)C4=O)C2)c1` (mixture of isomers) [Compound 76, Rac-3-(1-((cis)-2-((2-(2,6-dioxopiperidin-3-yl)-1-oxoisoindolin-5-yl)oxy)cyclohexyl)azetidin-3-yl)benzonitrile]: the EC50 in experiment [1] was 0.022 µM. Also, the “IKZF2 % Degradation @ 1 μM” value with IKZF2 (Helios) is 73.7%.

As for “Rac-3-(5-(((trans)-2-(3-hydroxy-3-phenylazetidin-1-yl)cyclohexyl)oxy)-1-oxoisoindolin-2-yl)piperidine-2,6-dione [Compound 96]”, in experiment [1], the EC50 was determined as 0.042 µM. The “IKZF2 % Degradation @ 1 μM” value with IKZF2 (Helios) was found to be 78.9%.

As for `O=C1CCC(N2Cc3c(ccc(O[C@H]4CCCC[C@@H]4N4CC(c5ccccc5)C4)c3Cl)C2=O)C(=O)N1` (single isomer, unassigned) [Compound 42], the EC50 in experiment [1] was 0.043 µM. Further, the “IKZF2 % Degradation @ 1 μM” value with IKZF2 (Helios) is <15%.
